Source: US6534048B1, “Topical clonidine preparation” (Curatek Pharmaceuticals Holding, Inc., priority 1999, dated 2003)

Key:
[1] = test system: patients with postherpetic neuralgia; details: cited from earlier work

SMILES: Clc1cccc(Cl)c1NC1=NCCN1 [clonidine, N-(2,6-dichlorophenyl)-4,5-dihydro-1H-imidazol-2-amine]
- side effects (eight volunteers, 3 mg or 6 mg per day for 14 consecutive days): no side effects were observed
- mean plasma concentrations (topical daily doses of 3 mg and 6 mg clonidine): not more than 0.2 nanograms/ml
- side effects ([1]; single oral 0.2 mg, at the time of peak clonidine levels): troublesome levels of sedation and dizziness
- pain relief ([1]; single oral doses of 0.2 mg, 40 patients): greater than that produced by doses of placebo or 120 mg codeine
